# ChEMBL document CHEMBL3638874, “Pyrrolopyrimidine compounds and their uses” (2015)
# Assays:
# [1] = molecular target: Cyclin-dependent kinase 2 (Homo sapiens, UniProt P24941); experiment: (§1) IMAP-FPT (Molecular Devices Trade Mark Technology) Endpoint Assay: The assay was run under the conditions identical to that for CDK1/cyclin B except 0.25 nM CDK1/cyclin B was replaced with 0.3 nM CDK2/cyclin A. A 384-well microtiter IMAP-FPT (Molecular Devices Trade Mark Technology) endpoint assay was used for CDK1/cyclin B kinase activity measurements. The same assay was used for IC50 determination of small molecule inhibitors. In general, the kinase reactions were carried out in 20 μL volumes in the reaction solution, which is composed of 2 μL compound (in 20% DMSO), 8 μL CDK1/cyclin B in the 1× Reaction Buffer (Molecular Devices, Cat. No. R8139), 10 μL substrate mixture of Tamra Histone-H1 peptide (Molecular Devices, Cat. No. R7384) and ATP (Amersham Pharmacia, Cat. No. 27-2056-01) in the 1× Reaction Buffer with 1 mM DTT freshly added. The final reaction mixture contains compound (inhibitor) with the concentration varying from 0.005-10 μM, 2% DMSO, 0.25 nM CDK1/cyclin B, 100 nM Tamra Histone-H1 peptide, and 20 μM ATP.
# [2] = molecular target: Cyclin-dependent kinase 1 (Homo sapiens, UniProt P06493); experiment: as §1, with “Assay:” for “Assay: The assay was run under the conditions identical to that for CDK1/cyclin B except 0.25 nM CDK1/cyclin B was replaced with 0.3 nM CDK2/cyclin A.”, “uL” for “μL”, “1x” for “1×”, “uM,” for “μM,”, “uM ATP.All reactions were run at room temperature in black 384-well flat-bottom Costar plates (Corning, Cat. No. 3710) for 120 min then were quenched.” for “μM ATP.”
# Cyclin-dependent kinase 1, sequence (P06493 whole entry): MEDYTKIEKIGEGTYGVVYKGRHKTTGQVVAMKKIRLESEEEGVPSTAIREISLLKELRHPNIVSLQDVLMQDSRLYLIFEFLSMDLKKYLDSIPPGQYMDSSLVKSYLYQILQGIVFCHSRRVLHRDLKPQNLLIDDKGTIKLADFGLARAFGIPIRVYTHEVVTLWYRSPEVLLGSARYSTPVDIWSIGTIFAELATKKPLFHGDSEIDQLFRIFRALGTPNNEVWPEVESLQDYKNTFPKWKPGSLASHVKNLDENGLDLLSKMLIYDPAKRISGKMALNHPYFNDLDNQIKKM
smiles,measurement,setting,value
CN(C)C(=O)c1cc2cnc(Nc3ccc(N4CCNCC4=O)cn3)nc2n1C1CCCC1,IC50,[1],> 15 µM
same,IC50,[2],> 15 µM
